Read-outs that look alike come from different tables or passages of the source.
Columns and labels:
OXPHOS gene expression = assay type: cell-based, mouse
cytochrome c = assay type: cell-based, mouse
[1] = test system: mitochondrial membrane potential; assay type: cell-based, mouse
nuOXPHOS transcripts = assay type: cell-based, mouse
mtOXPHOS transcripts = assay type: cell-based, mouse
[2] = test system: cellular dehydrogenase activity
reactive oxygen species = assay type: cell-based, mouse
[3] = Conc 20 μM, normalized score vs mock-treated (DMSO) wells
[4] = composite Z-score vs mock-treated (DMSO) wells, Conc 20 μM
[5] = 13.86 μM, composite Z-score vs DMSO
[6] = 20 μM, composite Z-score vs DMSO
[7] = composite Z-score vs DMSO, Conc 20 μM
[8] = composite Z-score vs DMSO wells, Conc 20 μM

cytochrome c, sequence (P62897 whole entry): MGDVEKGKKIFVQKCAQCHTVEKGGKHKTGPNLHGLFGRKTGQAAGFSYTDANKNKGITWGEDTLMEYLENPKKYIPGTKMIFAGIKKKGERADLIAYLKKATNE

## O=C(O)c1cc([N+](=O)[O-])ccc1NCCCc1ccccc1 [5-nitro-2-phenylpropylaminobenzoic acid]
OXPHOS gene expression
  GE-HTS (composite Z-score vs DMSO): 0.038
Cytochrome c
  cyt c (composite Z-score vs DMSO): 0.412
[1]
  ΔΨm (composite Z-score vs DMSO): −0.937
nuOXPHOS transcripts
  nucOX (composite Z-score vs DMSO): 0.089
mtOXPHOS transcripts
  mitoOX (composite Z-score vs DMSO): −0.075
[2]
  MTT (composite Z-score vs DMSO): −0.786
Reactive oxygen species
  ROS (composite Z-score vs DMSO): 0.872
C2C12 myotubes
  Viability (composite Z-score vs DMSO): −0.939

## O=C(Oc1cc(OC(=O)c2ccccc2)c2c(c1)O[C@H](c1ccc(OC(=O)c3ccccc3)c(OC(=O)c3ccccc3)c1)[C@@H](OC(=O)c1ccccc1)C2)c1ccccc1 [catechin pentabenzoate]
OXPHOS gene expression; [3]
  GE-HTS (composite Z-score): −0.898
Cytochrome c; [3]
  cyt c (composite Z-score): 1.272
[1]; [3]
  ΔΨm (composite Z-score): −1.326
nuOXPHOS transcripts; [3]
  nucOX (composite Z-score): −0.815
mtOXPHOS transcripts; [3]
  mitoOX (composite Z-score): −0.896
[2]; [3]
  MTT (composite Z-score): −1.672
Reactive oxygen species; [3]
  ROS (composite Z-score): 0.599
C2C12 myotubes; [3]
  Viability (composite Z-score): −1.434

## 3beta-chloroandrostanone
OXPHOS gene expression; [4]
  GE-HTS: −1.190
Cytochrome c; [4]
  cyt c: 1.021
[1]; [4]
  ΔΨm: −0.860
nuOXPHOS transcripts; [4]
  nucOX: −1.192
mtOXPHOS transcripts; [4]
  mitoOX: −0.907
[2]; [4]
  MTT: −1.203
Reactive oxygen species; [4]
  ROS: −0.077
C2C12 myotubes; [4]
  Viability: −0.424

## CCCCN1CCCCC1C(=O)Nc1c(C)cccc1C (centres unmarked) [bupivacaine]
OXPHOS gene expression; [5]
  GE-HTS: −0.227
OXPHOS gene expression; [6]
  GE-HTS: 0.392
Cytochrome c; [5]
  cyt c: −0.058
Cytochrome c; [6]
  cyt c: 0.190
[1]; [5]
  ΔΨm: −0.938
[1]; [6]
  ΔΨm: 0.084
nuOXPHOS transcripts; [5]
  nucOX: −0.316
nuOXPHOS transcripts; [6]
  nucOX: 0.548
mtOXPHOS transcripts; [5]
  mitoOX: 0.002
mtOXPHOS transcripts; [6]
  mitoOX: 0.009
[2]; [5]
  MTT: −1.440
[2]; [6]
  MTT: −0.841
Reactive oxygen species; [5]
  ROS: 0.545
Reactive oxygen species; [6]
  ROS: 0.801
C2C12 myotubes; [5]
  Viability: −0.663
C2C12 myotubes; [6]
  Viability: −1.202

## COc1ccc2c(c1)O[C@@H]1COc3cc(OC)c(OC)cc3[C@@H]1C2=O [mundoserone, reference compound]
OXPHOS gene expression; [4]
  GE-HTS: −0.606
Cytochrome c; [4]
  cyt c: 0.418
[1]; [4]
  ΔΨm: 0.837
nuOXPHOS transcripts; [4]
  nucOX: −0.643
mtOXPHOS transcripts; [4]
  mitoOX: −0.452
[2]; [4]
  MTT: −1.681
Reactive oxygen species; [4]
  ROS: −0.608
C2C12 myotubes; [4]
  Viability: −0.425

## O=c1cc(-c2ccc(O)cc2)oc2cc(O[C@@H]3O[C@H](CO)[C@@H](O)[C@H](O)[C@H]3O[C@@H]3OC[C@](O)(CO)[C@H]3O)cc(O)c12 [apiin]
OXPHOS gene expression; [7]
  GE-HTS: −0.032
Cytochrome c; [7]
  cyt c: −0.697
[1]; [7]
  ΔΨm: 0.029
nuOXPHOS transcripts; [7]
  nucOX: −0.150
mtOXPHOS transcripts; [7]
  mitoOX: 0.250
[2]; [7]
  MTT: −1.444
Reactive oxygen species; [7]
  ROS: 0.322
C2C12 myotubes; [7]
  Viability: −0.631

## C[C@]12CCC3C(CC[C@H]4C[C@H](O)CC[C@]34C)C1CC[C@@H]2O (some centres unmarked) [epiandrostanediol]
OXPHOS gene expression; [7]
  GE-HTS: −0.069
Cytochrome c; [7]
  cyt c: −0.201
[1]; [7]
  ΔΨm: −0.156
nuOXPHOS transcripts; [7]
  nucOX: −0.203
mtOXPHOS transcripts; [7]
  mitoOX: 0.190
[2]; [7]
  MTT: −0.207
Reactive oxygen species; [7]
  ROS: 0.113
C2C12 myotubes; [7]
  Viability: 1.143

## COc1cc2c(cc1OC)[C@@H]1C(=O)c3ccc4c(c3O[C@@H]1CO2)CC(C(C)C)O4 (some centres unmarked) [dihydrorotenone, reference compound]
OXPHOS gene expression; [7]
  GE-HTS: −2.179
Cytochrome c; [7]
  cyt c: −3.153
[1]; [7]
  ΔΨm: −0.314
nuOXPHOS transcripts; [7]
  nucOX: −2.212
mtOXPHOS transcripts; [7]
  mitoOX: −1.732
[2]; [7]
  MTT: −4.020
Reactive oxygen species; [7]
  ROS: −0.682
C2C12 myotubes; [7]
  Viability: 0.390

## CC(NCCC(c1ccccc1)c1ccccc1)c1ccccc1 (centres unmarked) [fendiline]
OXPHOS gene expression; [8]
  GE-HTS: −1.005
Cytochrome c
  cyt c: −0.405
Cytochrome c; [8]
  cyt c: −0.752
[1]; [8]
  ΔΨm: −1.174
nuOXPHOS transcripts; [8]
  nucOX: −0.896
mtOXPHOS transcripts; [8]
  mitoOX: −0.951
[2]; [8]
  MTT: −1.007
Reactive oxygen species; [8]
  ROS: 0.912
C2C12 myotubes; [8]
  Viability: −0.080

## N=C(N)N.N=C(N)N.O=C(O)O [guanidine carbonate]
OXPHOS gene expression; [7]
  GE-HTS: −1.142
Cytochrome c; [7]
  cyt c: −1.206
[1]; [7]
  ΔΨm: −0.252
nuOXPHOS transcripts; [7]
  nucOX: −1.112
mtOXPHOS transcripts; [7]
  mitoOX: −0.993
[2]; [7]
  MTT: −0.683
Reactive oxygen species; [7]
  ROS: 0.401
C2C12 myotubes; [7]
  Viability: −0.835

## CC(=O)c1cc(CC=C(C)C)c(O)c(CC=C(C)C)c1 [3,5-diprenyl-4-hydroxyacetophenone]
OXPHOS gene expression; [7]
  GE-HTS: 0.149
Cytochrome c; [7]
  cyt c: −0.220
[1]; [7]
  ΔΨm: −0.022
nuOXPHOS transcripts; [7]
  nucOX: −0.036
mtOXPHOS transcripts; [7]
  mitoOX: 0.538
[2]; [7]
  MTT: −0.582
Reactive oxygen species; [7]
  ROS: 1.014
C2C12 myotubes; [7]
  Viability: −0.293

## spiramycin
OXPHOS gene expression; [7]
  GE-HTS: −0.691
Cytochrome c; [7]
  cyt c: 0.216
[1]; [7]
  ΔΨm: −0.686
nuOXPHOS transcripts; [7]
  nucOX: −0.867
mtOXPHOS transcripts; [7]
  mitoOX: −0.204
[2]; [7]
  MTT: −0.770
Reactive oxygen species; [7]
  ROS: 0.379
C2C12 myotubes; [7]
  Viability: 0.176

## C=C1CCC2C(CC2(C)C)C(=O)CCC1O (centres unmarked) [isokobusone]
OXPHOS gene expression; [7]
  GE-HTS: −0.848
Cytochrome c; [7]
  cyt c: 0.480
[1]; [7]
  ΔΨm: −0.283
nuOXPHOS transcripts; [7]
  nucOX: −0.813
mtOXPHOS transcripts; [7]
  mitoOX: −0.713
[2]; [7]
  MTT: −0.507
Reactive oxygen species; [7]
  ROS: −0.201
C2C12 myotubes; [7]
  Viability: −0.090

## C[N+](C)(C)CC(=O)O [betaine]
OXPHOS gene expression
  GE-HTS: 0.478
Cytochrome c
  cyt c: −0.998
[1]
  ΔΨm: 0.345
nuOXPHOS transcripts
  nucOX: 0.354
mtOXPHOS transcripts
  mitoOX: 0.604
[2]
  MTT: 1.036
Reactive oxygen species
  ROS: −0.348
C2C12 myotubes
  Viability: 0.548

## COc1c(O)cc(O)cc1O [iretol]
OXPHOS gene expression; [4]
  GE-HTS: −0.881
Cytochrome c; [4]
  cyt c: 0.347
[1]; [4]
  ΔΨm: −0.404
nuOXPHOS transcripts; [4]
  nucOX: −0.583
mtOXPHOS transcripts; [4]
  mitoOX: −1.366
[2]; [4]
  MTT: −0.086
Reactive oxygen species; [4]
  ROS: −0.393
C2C12 myotubes; [4]
  Viability: −0.552

## O=C(O[C@@H]1Cc2c(O)cc(O)cc2O[C@@H]1c1cc(O)c(=O)c2c(O)c(O)cc([C@H]3Oc4cc(O)cc(O)c4C[C@H]3OC(=O)c3cc(O)c(O)c(O)c3)c2c1)c1cc(O)c(O)c(O)c1 [theaflavin digallate]
OXPHOS gene expression
  GE-HTS: 0.783
[1]
  ΔΨm: −0.326
nuOXPHOS transcripts
  nucOX: 0.948
mtOXPHOS transcripts
  mitoOX: 0.275
[2]
  MTT: −0.518
Reactive oxygen species
  ROS: 0.718
C2C12 myotubes
  Viability: −1.408

## cinnarazine
OXPHOS gene expression
  GE-HTS (composite Z-score): 0.362
[1]
  ΔΨm: 0.544
  ΔΨm (composite Z-score): −0.711
nuOXPHOS transcripts
  nucOX (composite Z-score): 0.338
mtOXPHOS transcripts
  mitoOX (composite Z-score): 0.349
[2]
  MTT: −1.003
  MTT (composite Z-score): −0.009
Reactive oxygen species
  ROS: 0.777
  ROS (composite Z-score): 1.252
C2C12 myotubes
  Viability: 0.752
  Viability (composite Z-score): −0.692

## Cc1c(O)cc(O)c2c(=O)c(-c3ccc(O)cc3)coc12 [genistein, 8-methyl]
OXPHOS gene expression
  GE-HTS (composite Z-score): 0.247
[1]
  ΔΨm (composite Z-score): −0.404
nuOXPHOS transcripts
  nucOX (composite Z-score): 0.353
mtOXPHOS transcripts
  mitoOX (composite Z-score): 0.023
[2]
  MTT (composite Z-score): −1.035
Reactive oxygen species
  ROS (composite Z-score): 1.016
C2C12 myotubes
  Viability (composite Z-score): −0.071

## CC12CCC3c4ccc(OCc5ccccc5)cc4CCC3C1C[C@@H](O)[C@@H]2O (some centres unmarked) [estriol benzyl ether]
OXPHOS gene expression
  GE-HTS (composite Z-score, OXPHOS gene expression): −0.114
[1]
  ΔΨm (composite Z-score vs DMSO mock-treated wells): 3.459
nuOXPHOS transcripts
  nucOX (composite Z-score, nuclear-encoded OXPHOS expression): 0.122
mtOXPHOS transcripts
  mitoOX (composite Z-score, mtDNA-encoded OXPHOS expression): −0.574
[2]
  MTT (composite Z-score vs DMSO mock-treated wells): 2.975
Reactive oxygen species
  ROS (composite Z-score vs DMSO mock-treated wells): −0.504
C2C12 myotubes
  Viability (composite Z-score vs DMSO mock-treated wells): 0.551

From patent US20090143279A1 (priority 2007, published 2009)
